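Growth conditions: 96-well plates. Treatment: test compound, 48 hours, 5 concentrations. Analysis: linear interpolation between bracketing concentrations; unreached endpoints set to highest concentration. Here, GI50 denotes the concentration required for 50% inhibition of growth. TGI denotes the concentration required for complete inhibition of growth.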
Tests used:
Assay in all cases: DTP human tumour cell line panel, 48 h
[1] = tested on: HOP-62 NSCLC
[2] = tested on: NCI-H460 lung
[3] = tested on: OVCAR-8 ovarian
[4] = tested on: HCT-15 colon
[5] = tested on: ACHN renal
[6] = tested on: IGROV1 ovarian
[7] = tested on: MDA-MB-435
[8] = tested on: EKVX NSCLC
[9] = tested on: SNB-19 CNS
[10] = tested on: A498 renal
[11] = tested on: NCI/ADR-RES ovarian
[12] = tested on: SR leukemia
[13] = tested on: UACC-257 melanoma
[14] = tested on: HS 578T breast
[15] = tested on: SK-MEL-28 melanoma
[16] = tested on: HCT-116 colon
[17] = tested on: OVCAR-4 ovarian
[18] = tested on: PC-3 prostate
[19] = tested on: MCF7 breast
[20] = tested on: MDA-MB-231 breast
[21] = tested on: HT29 colon
[22] = tested on: K-562 leukemia
[23] = tested on: NCI-H226 lung
[24] = tested on: SF-295 CNS
[25] = tested on: CAKI-1 renal
[26] = tested on: COLO 205 colon
[27] = tested on: U251 CNS
[28] = tested on: HCC-2998 colon
[29] = tested on: DU-145 prostate
[30] = tested on: OVCAR-3 ovarian
[31] = tested on: T-47D breast
[32] = tested on: CCRF-CEM leukemia
[33] = tested on: KM12 colon
[34] = tested on: BT-549 breast
[35] = tested on: 786-0 renal
[36] = tested on: SW-620 colon
[37] = tested on: SK-MEL-5 melanoma
[38] = tested on: RXF 393 renal
[39] = tested on: OVCAR-5 ovarian
[40] = tested on: SN12C renal
[41] = tested on: TK-10 renal
[42] = tested on: SK-OV-3 ovarian
[43] = tested on: HOP-92 NSCLC
[44] = tested on: LOX IMVI melanoma
[45] = tested on: NCI-H23 lung
[46] = tested on: A549 NSCLC
[47] = tested on: UACC-62 melanoma
[48] = tested on: NCI-H522 lung
[49] = tested on: SF-268 CNS
[50] = tested on: HL-60(TB) leukemia
[51] = tested on: SF-539 CNS
[52] = tested on: M14 melanoma
[53] = tested on: MALME-3M melanoma
[54] = tested on: MOLT-4 leukemia
[55] = tested on: UO-31 renal

## C=C(C)[C@@H]1CC[C@]2(C(=O)OCCOCCOCC[P+](c3ccccc3)(c3ccccc3)c3ccccc3)CC[C@]3(C)[C@H](CC[C@@H]4[C@@]5(C)CC[C@H](C)C(C)(C)[C@@H]5CC[C@]43C)[C@@H]12
[1]
  GI50: 0.0384 µM
  TGI: 0.614 µM
[2]
  GI50: 0.0383 µM
  TGI: > 100 µM
[3]
  GI50: 0.0431 µM
  TGI: > 100 µM

## Cc1cc2nc(-c3ccc(O)c(O)c3)n(Cc3ccc(O)c(O)c3)c2cc1C
[4]
  GI50: 7.1 µM
  TGI: 35.8 µM
[5]
  GI50: 15.3 µM
  TGI: 59.6 µM
[6]
  GI50: 18.1 µM
  TGI: > 100 µM
[7]
  GI50: 16 µM
  TGI: > 100 µM
[8]
  GI50: 79.9 µM
  TGI: > 100 µM
[9]
  GI50: 65 µM
  TGI: > 100 µM
[10]
  GI50: 77.2 µM
  TGI: > 100 µM
[11]
  GI50: > 100 µM
  TGI: > 100 µM
[12]
  GI50: 4.18 µM
  TGI: 19.5 µM
[13]
  GI50: 36 µM
  TGI: 95.9 µM
[14]
  GI50: 41.3 µM
  TGI: > 100 µM
[15]
  GI50: 87.6 µM
  TGI: > 100 µM
[16]
  GI50: 19.6 µM
  TGI: 35.1 µM
[17]
  GI50: 54.9 µM
  TGI: > 100 µM
[18]
  GI50: 22.5 µM
  TGI: > 100 µM
[19]
  GI50: 24.4 µM
  TGI: 80.7 µM
[20]
  GI50: 24.1 µM
  TGI: 77.3 µM
[21]
  GI50: 45.1 µM
  TGI: > 100 µM
[22]
  GI50: 7.43 µM
  TGI: > 100 µM
[23]
  GI50: 18.7 µM
  TGI: 35 µM
[24]
  GI50: 20.2 µM
  TGI: 66.3 µM
[25]
  GI50: 17 µM
  TGI: 81.1 µM
[26]
  GI50: 24.5 µM
  TGI: > 100 µM
[27]
  GI50: 5 µM
  TGI: > 100 µM
[28]
  GI50: 24.6 µM
  TGI: 56.3 µM
[29]
  GI50: 40.7 µM
  TGI: > 100 µM
[30]
  GI50: 14.6 µM
  TGI: 77 µM
[31]
  GI50: 31.8 µM
  TGI: > 100 µM
[32]
  GI50: 4.23 µM
  TGI: 25.5 µM
[33]
  GI50: 23.5 µM
  TGI: > 100 µM
[34]
  GI50: 28.9 µM
  TGI: > 100 µM
[35]
  GI50: 34 µM
  TGI: > 100 µM
[36]
  GI50: 24.7 µM
  TGI: > 100 µM
[37]
  GI50: 17.5 µM
  TGI: 39.9 µM
[1]
  GI50: 45.6 µM
  TGI: > 100 µM
[38]
  GI50: 21.2 µM
  TGI: > 100 µM
[39]
  GI50: > 100 µM
  TGI: > 100 µM
[2]
  GI50: 13.4 µM
  TGI: 43.1 µM
[40]
  GI50: 18.5 µM
  TGI: 44.8 µM
[41]
  GI50: 26.9 µM
  TGI: 82.6 µM
[42]
  GI50: > 100 µM
  TGI: > 100 µM
[43]
  GI50: 9.7 µM
  TGI: 55 µM
[44]
  GI50: 13.1 µM
  TGI: 28.4 µM
[3]
  GI50: 26.4 µM
  TGI: > 100 µM
[45]
  GI50: 35.1 µM
  TGI: > 100 µM
[46]
  GI50: 40.2 µM
  TGI: > 100 µM
[47]
  GI50: 19 µM
  TGI: 41.1 µM
[48]
  GI50: 6.71 µM
  TGI: 23.9 µM
[49]
  GI50: 18.5 µM
  TGI: 84.3 µM
[50]
  GI50: 9.33 µM
  TGI: 47.4 µM
[51]
  GI50: 19.7 µM
  TGI: > 100 µM
[52]
  GI50: 39.2 µM
  TGI: > 100 µM
[53]
  GI50: 27.2 µM
  TGI: > 100 µM
[54]
  GI50: 4.4 µM
  TGI: 28.6 µM
[55]
  GI50: 64.3 µM
  TGI: > 100 µM

Reference: PubChem BioAssay (NCI)
